Experimental data reported in PubChem BioAssay AID179 (DTP/NCI, 2004).
“And” between values parts separate entries of the source, which are not always exact repeats. Identical values can stand only once. The source made the active and inactive calls.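 How the source made its calls: active means compounds giving half or more protection of infected cells from virus-caused growth loss, again on retest; inactive means the rest.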

Tested on: CEM cells HIV-1 protection, formazan growth assay
Assay: NCI AIDS Antiviral Assay
Settings: for IC50: measured here: growth of uninfected CEM cells
Summary of the method: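 Human CEM cells, uninfected and HIV-1-infected, received five drug concentrations, and growth was read by soluble formazan assay. Compounds giving at least 50% protection were retested; reproducible 100% protection defined confirmed active.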

Structure (SMILES) | outcome | EC50 [µM] | IC50
O=C1C=CC=C/C1=C1/SC(c2ccccc2)=C(O)N1c1ccccc1 | inactive | – | –
COc1ccc(/C=c2\sc3nc(-c4ccccc4)nn3c2=O)cc1 | – | 182 | 195 µM
O=C(OCCc1ccccc1)c1ccc2c(O)c(O)ccc2c1 | – | > 8.32 | 6.03 µM
CCS(=O)(=O)c1c2cc(OC)ccc2nc2ccc(OC)cc12 | – | > 200 | > 200 µM
O=C(/C=C/c1ccc(OCCSCCCCCCCCCCSCCOc2ccc(/C=C/C(=O)c3ccc(Cl)cc3)cc2)cc1)c1ccc(Cl)cc1 | – | > 12.9 | 12 µM
CCOC1(C)Nc2cc(OC)cc3c2N1C(=O)CCS3 (centres undefined) | – | > 200 | 95.5 µM
Cc1ccc(S(=O)(=O)N2c3ccccc3[C@H]3CCc4c([nH]c5ccccc45)[C@H]32)cc1 | – | 35.5 | > 100 µM
N#Cc1c(-c2ccccc2)c(C#N)c(=S)n(C2OC(CO)C(O)C(O)C2O)c1N (centres undefined) | – | > 200 | 83.2 µM and 64.6 µM
COC(=O)CCC(=O)c1ccc2c(c1)CCC2 | – | > 200 | > 200 µM
COc1ccc([N+](=O)[O-])c2c(NCCCN(C)C)c(C)c(C)nc12 | – | > 200 | 91.2 µM
CN(C)CCn1nc(N)c2nc3cc(C(F)(F)F)ccc3nc21 | – | > 100 | 63.1 µM
C=C1CN(S(=O)(=O)c2ccc(C)cc2)CCCN(C(C)C)CCCN(S(=O)(=O)c2ccc(C)cc2)C1 | – | > 200 | 6.31 µM
CSc1ncnc2c1cnn2CCCCO | – | > 200 | > 200 µM
O=C(NN1C(=O)C(Cl)C1c1cccc(O)c1)c1ccccc1O (centres undefined) | – | > 151 | 141 µM
Cc1cc([N+](=O)[O-])ccc1NC(=O)C(=O)C(C(=O)c1ccccc1-c1ccccc1)C1OC(=O)c2ccccc21 (centres undefined) | – | > 178 | 28.2 µM
O=C(O)CCC1(CCC(=O)O)CCCCCCCCC(CCC(=O)O)(CCC(=O)O)C(=O)C1=O | – | > 200 | > 200 µM
CS/C=C\C(=O)O[C@H]1C[C@@H]2[C@@H](O)c3occ(C)c3C[C@]2(C)[C@@H](C)C1 | – | > 200 | 30.2 µM
Oc1cc(-n2cccn2)c(O)cc1-n1cccn1 | – | > 77.6 | 14.1 µM
O=NNc1ccc(Sc2ccc(NN=O)cn2)nc1 | – | > 100 | > 100 µM
COc1cc(C2c3cc4c(cc3OC(N3CCCCC3)C2C)OCO4)cc(OC)c1O (centres undefined) | – | > 200 | 7.59 µM
COC(=O)[C@@H]1COC(C(C)(C)C)N1C(=O)C(c1ccccc1)c1ccccc1 (some centres undefined) | inactive | – | –
Cn1c(=O)nc2n(-c3ccc(O)cc3)c3ccccc3nc-2c1=O | inactive | – | –

Structure (SMILES) | outcome | EC50 [µM] | IC50
COC(=O)c1ccc(CCC2=CC(=O)C(Br)=CC2=O)cc1 | – | > 200 | 9.33 µM
Cc1cccc(N=Nc2c(C)nn(C(=O)c3ccc(O)cc3)c2C)c1 | inactive | – | –
CCCC(O)c1ccc2[nH]c3c(C)cc([N+](=O)[O-])c(C)c3c2c1 (centres undefined) | – | > 4.68 | > 4.68 µM
Oc1cc(O)cc(-c2c(O)cc(O)cc2O)c1 | – | > 200 | 145 µM
COc1cc(C)cc2c1c(=O)c1ccccc1n2C | – | > 200 | 38.9 µM
Cc1ccc(NC=O)c(-c2c(N)[nH]c(=S)[nH]c2=O)c1 | – | > 200 | 148 µM
C[N+]1(CCNP(=S)(NCC[N+]2(C)Cc3c(ccc4c3OCO4)C3C2c2cc4c(cc2C[C@@H]3O)OCO4)NCC[N+]2(C)Cc3c(ccc4c3OCO4)C3C2c2cc4c(cc2C[C@@H]3O)OCO4)Cc2c(ccc3c2OCO3)C2C1c1cc3c(cc1C[C@H]2O)OCO3 (some centres undefined) | – | > 380 | 4.68 µM
Cc1cc2nc3c(C#N)c(C)c(CCCl)c(Cl)n3c2cc1C | – | > 200 | 3.31 µM
CC(=O)CC(c1ccc2c(c1)OCO2)c1c(O)c2ccccc2oc1=O (centres undefined) | – | > 200 | 135 µM
O=C(O)C1Cc2ccccc2OC1=O (centres undefined) | – | > 200 | > 200 µM
COc1ccc(-c2ccccc2)cc1SSc1cc(-c2ccccc2)ccc1OC | – | > 200 | 178 µM
Cl/C=C\C[N+]12CN3CN(CN(C3)C1)C2 | – | > 200 | 93.3 µM
O=P(O)(CN(C1CCCCC1)C1CCCCC1)CN(C1CCCCC1)C1CCCCC1 | – | 178 | > 200 µM
CC(=O)O[C@]1(C(C)=O)CC[C@H]2[C@@H]3C[C@H](C)C4=CC(=O)C=C[C@]4(C)[C@@]3(F)[C@@H](O)C[C@@]21C | inactive | – | –
COc1ccc(/C=C2\Sc3scc(-c4ccc([N+](=O)[O-])cc4)[n+]3C2=O)cc1OC | – | > 200 | 15.8 µM
O=c1[nH]cnc2c1ncn2C1SC(CO)C(O)C1O (centres undefined) | – | > 200 | 117 µM
CC(C)C(N)=Nc1ccc(Cl)c(Cl)c1 | – | > 200 | 72.4 µM
O=C(/C=C/c1ccc(O)cc1)OCC1OC(Oc2cc(O)c3c(c2)OC(c2ccc(O)cc2)CC3=O)C(O)C(O)C1O (centres undefined) | – | > 51.3 | 27.5 µM
NC(CC(=O)O)C(=O)NC1Cc2ccccc2C1=O (centres undefined) | – | > 200 | 97.7 µM
Nc1ncnc2nc(C3OC(CO)C(O)C3O)[nH]c12 (centres undefined) | – | > 70.8 | > 70.8 µM
O=C(N/N=C\c1ccncc1)c1ccncc1 | – | > 200 | > 200 µM
CCCCc1ccc(Nc2nc(Cl)c3c(ncn3C3CC(Oc4ccc(C)cc4)C(COc4ccc(C)cc4)O3)n2)cc1 (centres undefined) | – | > 200 | > 200 µM

Structure (SMILES) | outcome | EC50 [µM] | IC50
CC1=C(C(=O)Nc2ccc([N+](=O)[O-])cc2)C(c2ccc3c(c2)OCO3)C(C(=O)Nc2ccc([N+](=O)[O-])cc2)=C(C)N1 | – | > 6.76 | > 6.76 µM
O=[N+]([O-])c1ccccc1S(=O)(=O)Oc1ccccc1 | – | > 77.6 | 47.9 µM
Nc1nc2ncn(COC(CO)CO)c2c(=O)[nH]1 | – | > 200 | > 200 µM
Oc1ccc(-c2c3ccccc3c(-c3ccc(O)cc3)c3ccccc23)cc1 | – | > 2.75 | > 2.75 µM
O=S(O)c1cc(Cl)cc(Cl)c1OCc1ccccc1 | inactive | – | –
O=c1[nH][nH]c(=O)c2c1ccc1oc3ccccc3c12 | – | > 200 | > 200 µM
C=C[C@@H](C)[C@@H](O[Si](C)(C)C(C)(C)C)c1c(O)c2c(c3c(CCC)cc(=O)oc13)OC(C)(C)C=C2 | – | > 200 | 105 µM
CCCCn1c(-c2ccccc2)cs/c1=N\N=C1C=C(C(C)(C)C)C(=O)C(C(C)(C)C)=C1 | – | > 15.8 | > 15.8 µM
Cc1ccc(S(=O)(=O)N/N=C2/CC3CCC4CC2CC34)cc1 (centres undefined) | – | > 200 | 79.4 µM
COC(C/C(=C/CO[Si](C(C)C)(C(C)C)C(C)C)C(=O)N(C(=O)OC(C)(C)C)c1ccccc1I)OC | – | > 200 | 77.6 µM
CNC(=O)CN(CC(=O)NC)C(=O)NC | – | > 120 | > 120 µM
COc1ccc(/C=C(/C(=O)O)c2ccccc2)cc1 | – | > 708 | 288 µM
CC(C)OC(=S)SSC(=S)NCCNC(=S)SSC(=S)OC(C)C | – | > 200 | 9.77 µM
O=C1N2CCN=C2c2ccccc2C1(O)c1ccccc1 (centres undefined) | – | > 200 | > 200 µM
C=C(Br)CNC(=O)CCC(=O)NCC(=C)Br | – | > 200 | > 200 µM
CCO/N=C(/CC)c1ccc(Br)s1 | – | > 200 | 102 µM
[Cu+2].[NH-]c1cc(N)ccc1O.[NH-]c1cc(N)ccc1O | inactive | – | –
CC1(C)OC(=O)[C@@](C)([C@H](O)c2ccccc2)O1 | inactive | – | –
CN(C)c1ccc(C(=C2C=CC(=[N+](C)C)C=C2)c2cc(S(=O)(=O)O)cc3cc(S(=O)(=O)O)ccc23)cc1 | – | > 100 | > 100 µM
CCC[CH2][Sn]([CH2]CCC)([O]C(=O)c1cccc(F)c1F)[O]C(=O)c1cccc(F)c1F | – | > 9.55 | 3.55 µM
CC(=O)/C(=C/c1cccc(Br)c1)C(=O)c1ccccc1 | – | > 21.9 | 11.2 µM
CC(=O)OCC(OC(C)=O)C(OC(C)=O)C(OC(C)=O)C(=O)CNn1c(-c2ccccc2Cl)nc2ccccc2c1=O (centres undefined) | inactive | – | –

Structure (SMILES) | outcome | EC50 [µM] | IC50
NS(=O)(=O)c1ccc(C(=O)O)cc1 | – | > 200 | > 200 µM
O=C(NN=C1CCCCC1)NN=C1CCCCC1 | – | > 100 | > 100 µM
C[N+]12CC3C(O)CC1CCC32 (centres undefined) | – | > 1320 | > 1320 µM
CCOC(=O)C(C)(C)Oc1ccc2c(=O)cc(-c3ccc(Cl)cc3)oc2c1 | – | > 18.6 | > 18.6 µM
CCCN(CCC)CC(=O)Nc1cccc(Cl)c1C | – | > 200 | 63.1 µM
O=C(O)CSc1n[nH]c(-c2ccccc2)n1 | – | > 30.9 | 7.59 µM
O=C1CC(CC(O)[C@@H]2CCCC[C@@H]2O)CC(=O)N1c1ccccc1 (some centres undefined) | – | > 200 | > 200 µM
CC1=CC(=O)c2ccc3c4ccccc4n(C)c3c2C1=O | – | > 26.3 | > 26.3 µM
COc1ccc(/C(=N\N=C(N)N)C(c2ccc(OC)cc2)C2OC(=O)c3ccccc32)cc1 (centres undefined) | – | > 3.24 | > 3.24 µM
Cc1cc(NS(=O)(=O)c2ccc(Nc3c4ccccc4nc4c(C(=O)NCC#N)cccc34)cc2)no1 | – | > 200 | 10.7 µM
O=[N+]([O-])c1ccc(C2CC3(c4ccccc4)ON=C(c4ccccc4)N3c3ccccc3S2)cc1 (centres undefined) | – | > 200 | 102 µM
Cn1nc(-c2ccc(Cl)c(Cl)c2)nc2c(=O)n(C)c(=O)nc1-2 | – | > 200 | 3.8 µM
Cc1sc(C)c2c1C(=O)CC2N (centres undefined) | – | > 200 | 9.77 µM
CC(C)(N=NC(C)(C)C(=O)NCCO)C(=O)NCCO | – | > 200 | > 200 µM
CCCC#CC(O)(C(=O)OC1CCN(C)CC1)C1CCCCC1 (centres undefined) | – | > 200 | > 200 µM
Nc1ccc(S(=O)(=O)NC(CSSCC(NS(=O)(=O)c2ccc(N)cc2)C(=O)O)C(=O)O)cc1 (centres undefined) | – | > 200 | > 200 µM
O=C(O)c1c(-c2cccc3ccccc23)sc(-c2cccc3ccccc23)c1C(=O)O | inactive | – | –
COc1ccc(CC2NCCc3cc(OC)c(OC)cc32)cc1 (centres undefined) | – | > 794 | 138 µM
Cc1ccc(C)c(NC(=O)C(=O)CC(=O)c2cccc3ccccc23)c1 | – | > 105 | > 105 µM
C=C1CCCCCCCCCCC1S(=O)c1ccccc1 (centres undefined) | – | > 200 | 12 µM
O=C(/C=C/c1ccccc1)CCN1CCCC1 | – | > 200 | 8.13 µM
